Consider two compounds from article PMC8084333, “Trehalose and α-glucan mediate distinct abiotic stress responses in Pseudomonas aeruginosa” (PLoS Genetics, 2021).

The term Km denotes the substrate concentration at which the rate is half of its maximum.

Assay type in all cases: biochemical
Assay [1] concerns the target T1, TreS/Pep2 (Pseudomonas aeruginosa, UniProt Q9I1W3).
T1 construct: gene PA2152; natural TreS-Pep2 fusion; synthetic codon-optimised gene, N-terminal 6xHis-tag with TEV site, E. coli BL21(DE3), Ni and S200 columns
T1 sequence (Q9I1W3 1-1100): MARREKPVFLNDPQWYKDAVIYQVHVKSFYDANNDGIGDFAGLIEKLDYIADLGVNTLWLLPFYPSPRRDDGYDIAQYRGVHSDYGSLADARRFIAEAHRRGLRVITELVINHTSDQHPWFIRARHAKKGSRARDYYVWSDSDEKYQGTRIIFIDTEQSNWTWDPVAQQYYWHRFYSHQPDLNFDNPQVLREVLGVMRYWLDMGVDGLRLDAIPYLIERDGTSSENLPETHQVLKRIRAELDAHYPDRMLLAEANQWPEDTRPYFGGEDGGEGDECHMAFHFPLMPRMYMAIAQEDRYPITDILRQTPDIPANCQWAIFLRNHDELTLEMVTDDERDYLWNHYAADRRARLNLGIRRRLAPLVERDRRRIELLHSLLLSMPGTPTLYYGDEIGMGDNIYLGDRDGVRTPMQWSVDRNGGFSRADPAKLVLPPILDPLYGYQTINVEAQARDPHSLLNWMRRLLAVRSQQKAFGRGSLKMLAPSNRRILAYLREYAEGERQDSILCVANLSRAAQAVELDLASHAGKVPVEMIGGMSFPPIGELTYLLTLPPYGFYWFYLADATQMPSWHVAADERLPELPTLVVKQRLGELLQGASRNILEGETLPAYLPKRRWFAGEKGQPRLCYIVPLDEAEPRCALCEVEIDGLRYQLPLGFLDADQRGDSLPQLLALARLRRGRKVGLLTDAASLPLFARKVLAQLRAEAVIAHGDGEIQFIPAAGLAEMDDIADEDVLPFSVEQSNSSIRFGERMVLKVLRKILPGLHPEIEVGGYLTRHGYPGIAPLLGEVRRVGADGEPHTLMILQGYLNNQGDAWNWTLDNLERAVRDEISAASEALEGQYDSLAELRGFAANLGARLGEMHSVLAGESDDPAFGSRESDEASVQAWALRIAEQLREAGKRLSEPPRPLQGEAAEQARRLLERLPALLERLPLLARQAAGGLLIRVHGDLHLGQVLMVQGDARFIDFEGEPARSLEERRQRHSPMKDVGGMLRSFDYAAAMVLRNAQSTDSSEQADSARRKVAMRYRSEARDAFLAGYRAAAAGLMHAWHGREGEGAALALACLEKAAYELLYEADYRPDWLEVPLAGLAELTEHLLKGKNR
The assay can be described thus: TreS activity coupled to Pep2 maltokinase ADP-release assay. As to conditions: trehalose isomerisation (TreS domain); ATP, 5 mM MgCl2, pH 8.0, 21 °C.

For assay [2], the target named is T1, TreS/Pep2. The experiment in a line: coupled spectrophotometric ADP-release assay (PK/LDH), global fit. Conditions: maltokinase (Pep2 domain); ATP varied, 5 mM MgCl2, pH 8.0, 21 °C; KiB term of random order ternary complex model (substrate dissociation constant), not an inhibition constant.
The target of a further assay is T2, MalQ (Pseudomonas aeruginosa, UniProt Q9I1V2).
T2 construct: gene PA2163; recombinant, N-terminal 6xHis-tag (pET101), E. coli SoluBL21, HisTrap
T2 sequence (Q9I1V2 1-684): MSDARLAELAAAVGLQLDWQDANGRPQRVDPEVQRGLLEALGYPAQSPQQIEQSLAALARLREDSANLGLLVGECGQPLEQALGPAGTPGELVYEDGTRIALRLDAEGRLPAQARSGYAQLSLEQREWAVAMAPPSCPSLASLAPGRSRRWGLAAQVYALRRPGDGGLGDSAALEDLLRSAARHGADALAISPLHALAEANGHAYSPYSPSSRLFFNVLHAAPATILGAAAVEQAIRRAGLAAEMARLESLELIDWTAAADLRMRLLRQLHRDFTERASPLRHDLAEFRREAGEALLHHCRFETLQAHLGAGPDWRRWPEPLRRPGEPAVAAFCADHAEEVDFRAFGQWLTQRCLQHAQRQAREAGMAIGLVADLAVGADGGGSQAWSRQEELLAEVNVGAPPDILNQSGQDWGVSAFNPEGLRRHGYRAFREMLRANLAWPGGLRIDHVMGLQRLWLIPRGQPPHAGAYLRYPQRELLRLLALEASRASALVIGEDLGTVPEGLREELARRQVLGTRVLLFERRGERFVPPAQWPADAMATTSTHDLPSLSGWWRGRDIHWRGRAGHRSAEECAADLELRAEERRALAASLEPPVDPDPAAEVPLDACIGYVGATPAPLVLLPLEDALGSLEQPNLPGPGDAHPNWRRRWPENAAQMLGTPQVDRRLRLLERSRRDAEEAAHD
The experiment in a line: MALDI-TOF MS. Conditions: 1 mM substrate; disproportionation.

As to `OC[C@H]1O[C@H](O[C@H]2O[C@H](CO)[C@@H](O)[C@H](O)[C@H]2O)[C@H](O)[C@@H](O)[C@@H]1O` [trehalose], at TreS/Pep2 [1], the Km is over 100 mM.
For `OC[C@H]1O[C@H](O[C@H]2[C@H](O)[C@@H](O)C(O)O[C@@H]2CO)[C@H](O)[C@@H](O)[C@@H]1O` (stereo partly drawn) [maltose], the “Ki^Mal” value at TreS/Pep2 [2] is 550 ± 130 µM. Also, the “MALDI-TOF MS” value on MalQ is recorded as “We therefore incubated MalQ with maltose”.
